Laboratory results taken from patent publication US20260124309A1, “STAT6 DEGRADERS AND USES THEREOF” (Kymera Therapeutics, Inc., priority 2023, published 2026).

What was measured:
STAT6-HiBiT = biological target: T1, STAT6-HiBiT (Homo sapiens, UniProt P42226); experiment: STAT6 HiBiT degradation in A549 (STAT6-HiBiT) cells; assay type: cell-based; settings: 24 h
T1 construct: Degradation of STAT6 in endogenously tagged STAT6-HiBiT A549 cells; endogenous in cells; host or cells: A549 (STAT6-HiBiT) knock-in cells
T1 sequence (P42226 1-847): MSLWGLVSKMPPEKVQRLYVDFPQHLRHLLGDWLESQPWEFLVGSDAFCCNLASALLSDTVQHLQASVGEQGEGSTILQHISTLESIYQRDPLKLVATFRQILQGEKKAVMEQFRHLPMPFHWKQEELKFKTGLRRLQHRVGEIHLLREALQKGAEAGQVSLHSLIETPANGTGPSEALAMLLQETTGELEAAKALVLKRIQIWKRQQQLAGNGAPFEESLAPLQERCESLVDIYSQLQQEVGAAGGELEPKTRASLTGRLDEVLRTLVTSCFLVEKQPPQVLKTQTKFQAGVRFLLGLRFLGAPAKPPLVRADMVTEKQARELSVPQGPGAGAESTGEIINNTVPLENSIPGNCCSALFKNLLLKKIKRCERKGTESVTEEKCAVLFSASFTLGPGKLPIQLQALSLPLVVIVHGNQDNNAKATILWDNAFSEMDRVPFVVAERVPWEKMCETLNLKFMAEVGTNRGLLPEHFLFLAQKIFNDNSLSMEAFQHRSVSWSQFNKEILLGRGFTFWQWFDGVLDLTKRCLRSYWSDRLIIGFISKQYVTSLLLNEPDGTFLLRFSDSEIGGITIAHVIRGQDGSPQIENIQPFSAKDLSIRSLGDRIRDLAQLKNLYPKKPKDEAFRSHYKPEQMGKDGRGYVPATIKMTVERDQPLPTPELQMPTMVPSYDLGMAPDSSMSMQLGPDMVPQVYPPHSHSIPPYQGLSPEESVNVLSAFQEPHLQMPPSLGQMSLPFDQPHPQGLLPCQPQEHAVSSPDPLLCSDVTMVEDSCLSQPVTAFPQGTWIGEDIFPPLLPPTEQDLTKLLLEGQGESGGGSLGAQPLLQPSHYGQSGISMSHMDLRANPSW
Method: Degradation of STAT6 in endogenously tagged STAT6-HiBiT A549 cells was quantitatively measured using the Nano-Glo HiBiT Lytic Detection System (Promega, 3040). A549 (STAT6-HiBiT) cells were seeded in 384-well plates with a density of 1.25k cells per well in 20 μl fresh media. Compounds were then added to the assay plates using the Apricot S3 with a final top concentration of up to 10 uM in a 4-fold dilution series with total of 10 doses. The assay plates were then incubated for 24 hours at 37° C. under 5% CO2. At the assay endpoint, 20 μL of Nano-Glo HiBiT Lytic Reagent was added to each well and agitated on a plate shaker at 300 rpm for 10 minutes at room temperature. Luminescence was read on PHERAStar FSX Instrument (Is integration time). The data was analyzed by GraphPad Prism and the dose dependent STAT6 degradation was fit using the four-parameter inhibitor vs. response nonlinear regression.
The letter codes for DC50 (nM) include: A (<1 nM): B (1-10 nM); C (>10-100 nM); D (>100-1000 nM); E (>1000 nM); and F (not tested). The letter codes for Dmax (%) include: A (>90%); B (>70-90%); C (>50-70%); D (<50%); and E (not tested).

[1] = biological target: T2, biotinylated truncated STAT6 (123-632)-avi (Homo sapiens, UniProt P42226); experiment: STAT6 HTRF binding assay; settings: HTRF binding, 0.15 nM biotinylated truncated STAT6 (123-632)-avi, 20 nM fluorescein-labeled probe
T2 construct: biotinylated truncated STAT6 (123-632)-avi purified from E. coli; made in house; host or cells: E. coli
T2 sequence (P42226 123-632 limits assumed): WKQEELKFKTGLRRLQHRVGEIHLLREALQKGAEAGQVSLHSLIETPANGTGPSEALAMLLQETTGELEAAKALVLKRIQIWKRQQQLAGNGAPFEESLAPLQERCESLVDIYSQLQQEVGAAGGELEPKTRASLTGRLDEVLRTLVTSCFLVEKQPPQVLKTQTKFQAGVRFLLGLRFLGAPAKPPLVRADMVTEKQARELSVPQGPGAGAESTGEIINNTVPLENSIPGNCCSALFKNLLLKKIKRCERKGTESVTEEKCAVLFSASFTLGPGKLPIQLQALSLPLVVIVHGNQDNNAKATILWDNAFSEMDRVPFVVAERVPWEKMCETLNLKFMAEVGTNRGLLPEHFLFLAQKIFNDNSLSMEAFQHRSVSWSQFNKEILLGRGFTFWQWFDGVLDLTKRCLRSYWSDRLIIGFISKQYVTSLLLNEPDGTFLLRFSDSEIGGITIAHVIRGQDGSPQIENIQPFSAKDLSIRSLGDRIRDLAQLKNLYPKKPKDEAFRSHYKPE
Method: HTRF binding assays were performed using 0.15 nM biotinylated truncated STAT6 (123-632)-avi purified from E. coli, 1× Streptavidin-terbium (CisBio) prepared by mixing SA-Tb in PPI detection buffer (CisBio), 20 nM proprietary fluorescein-labeled probe, and test compounds in assay buffer consisting of 50 mM HEPES-Na pH 7.5, 100 mM NaCl, 1 mM EDTA, 2 mM DTT, 0.1% Tween-20 with a final volume of 20 uL. Compound stocks were dissolved at 10 mM in 100% DMSO and 11 point titration with 3 fold serial dilution was performed in white, opaque 384 well microplates. Reaction plates were incubated at room temperature for 30 minutes. Plates were centrifuged at low rpm for 5 mins, and the ratio of fluorescence intensities were measured at emission wavelengths for fluorescein acceptor (520 nm) and terbium donor (495 nm) on Envision Plate reader. % Inhibition was calculated from the 520/495 ratio generated by using proprietary positive control compound for 100% inhibition and DMSO only reactions for 0% inhibition. Data was processed and dose response curves were generated using GraphPad Prism to determine the concentration required for inhibiting 50% of the HTRF signal (IC50).
The letter codes for IC50 (μM) include: A (<0.1 μM); B (0.1-1 μM); C (>1-10 μM); D (>10-100 μM); E (>100 μM); and F (not tested).

STAT6 = biological target: T3, STAT6 (Homo sapiens, UniProt P42226); experiment: STAT6 MSD degradation in A549 cells; assay type: cell-based; settings: 24 h
T3 construct: endogenous in cells; host or cells: A549
T3 sequence (P42226 1-847): T1 sequence (P42226 1-847)
Method: Degradation of STAT6 in cells was quantitatively measured using Meso Scale Discovery (MSD) technology. A549 cells were seeded in 96-well plates with a density of 1.5×10e4 to 5×10e5 cells per well in 100 μl fresh media. Compounds were then added to the assay plates with a final top concentration of up to 10 uM in a 1:3 dilution series with total of 9 doses. The assay plates were then incubated for 4 to 24 hours at 37° C. under 5% CO2. The assay plates were then centrifuged for 5 minutes and the cell pellets were treated with 100 μl/well RIPA lysis buffer (Boston Bioproducts, BP-115D) with protease and phosphatase inhibitors (Roche, 05892791001 and 04906837001). To prepare the MSD assay plates (MSD, L15XA), the plates were coated with the capture antibody (Abnova, H00006778) in PBS, at 40 μl/well. The plates were then incubated overnight at 4° C., washed 1 time with 150 μl/well TBST buffer (Cell Signaling Technology, #9997S) and blocked with 150 μl/well blocking buffer (MSD, R93BA-4). Cell lysates were then added to MSD assay plates and the plates were incubated at room temperature for 1 hour. The plates were then washed 3 times with 150 μl/well TBST buffer and 25 μl/well primary detection antibody (Cell Signaling Technology, #5397S). The assay plates were then incubated at room temperature for 1 hour, washed 3 times with 150 μl/well TBST buffer, and 25 μl/well secondary detection antibody, SULFO-TAG anti-rabbit antibody (MSD, R32AB-1) were added. The assay plates were then incubated at room temperature for 1 hour, washed 3 times with 150 μl/well TBST buffer, and 150 μl/well MSD reading buffer (MSD, R92TC-2) were added. The plates were then analyzed by an MSD reader. The data was analyzed by GraphPad Prism and the dose dependent STAT6 degradation was fit using the four-parameter inhibitor vs. response nonlinear regression.
The letter codes for DC50 (nM) include: A (<1 nM); B (1-10 nM); C (>10-100 nM); D (>100-1000 nM); E (>1000 nM); and F (not tested). The letter codes for Dmax (oo) include: A (>90%); B (>70-90%); C (>50-70%); D ([…]); and F (not tested).

**Q.** How did the DC50 (STAT6-HiBiT) turn out when `Cc1nn([C@H]2CCC(=O)NC2=O)c2cccc(CCN3CCN(c4cc(Cl)c(-c5cc(C6=CCCN(C(=O)CCn7cccn7)C6)c(F)c6[nH]c(C(=O)N(C)C)cc56)cc4F)CC3)c12` (single isomer, unassigned) [Example I-1078] was run?
**A.** < 1 nM

**Q.** What about the Dmax (STAT6-HiBiT) of the same compound?
**A.** > 90%

**Q.** And the IC50 [1]?
**A.** < 100 nM

**Q.** With `Cc1nn(C2CCC(=O)NC2=O)c2cccc(CCN3CCN(c4cc(Cl)c(-c5cc(C6=CCCN(C(=O)CCn7cccn7)C6)c(F)c6[nH]c(C(=O)N(C)C)cc56)cc4F)CC3)c12` (single isomer, unassigned) [Example I-1079] as the compound, how does the DC50 (STAT6-HiBiT) read?
**A.** < 1 nM

**Q.** What about the Dmax (STAT6-HiBiT) of the same compound?
**A.** > 90%

**Q.** What about the IC50 [1] of the same compound?
**A.** < 100 nM

**Q.** Which DC50 (STAT6-HiBiT) does the source give for `CN(C)C(=O)c1cc2c(-c3ccc(C4CCN(c5ccc([C@@H]6CCC(=O)NC6=O)cc5F)CC4)cc3)cc(C3=CCCN(C(=O)CCn4ccnn4)C3)c(F)c2[nH]1` (single isomer, unassigned) [Example I-1438] here?
**A.** < 1 nM

**Q.** And the Dmax (STAT6-HiBiT)?
**A.** > 90%

**Q.** And the IC50 [1]?
**A.** < 100 nM

**Q.** `CN(C)C(=O)c1cc2c(-c3ccc(C4CCN(c5ccc(C6CCC(=O)NC6=O)cc5F)CC4)cc3)cc(C3=CCCN(C(=O)CCn4ccnn4)C3)c(F)c2[nH]1` (single isomer, unassigned) [Example I-1439] was tested. Which DC50 (STAT6-HiBiT) did it give?
**A.** < 1 nM

**Q.** What about the Dmax (STAT6-HiBiT) of the same compound?
**A.** > 90%

**Q.** What about the IC50 [1] of the same compound?
**A.** < 100 nM

**Q.** Which IC50 [1] does the source give for `CN(C)C(=O)c1cc2c(F)c(C3=CCCN(C(=O)CCn4cccn4)C3)cc(-c3ccc(C4CN(C(=O)c5ccc(Cl)c(C6CCC(=O)NC6=O)c5)C4)cc3)c2o1` (stereo not drawn) [Example I-495, 5-(1-(3-(1H-pyrazol-1-yl)propanoyl)-1,2,5,6-tetrahydropyridin-3-yl)-7-(4-(1-(4-chloro-3-(2,6-dioxopiperidin-3-yl)benzoyl)azetidin-3-yl)phenyl)-4-fluoro-N,N-dimethylbenzofuran-2-carboxamide] here?
**A.** < 100 nM

**Q.** What about the DC50 (STAT6) of the same compound?
**A.** 10 to 100 nM

**Q.** What about the Dmax (STAT6) of the same compound?
**A.** 50 to 70%

**Q.** With `Cc1cc(C2CCN(c3cccc4c3n(C)c(=O)n4C3CCC(=O)NC3=O)CC2)ccc1-c1cc(C2=CCCN(C(=O)C(C)C)C2)c(F)c2[nH]c(C(=O)N(C)C)cc12` (stereo not drawn) [Example I-566] as the compound, how does the IC50 [1] read?
**A.** 1000 to 10000 nM

**Q.** What about the DC50 (STAT6) of the same compound?
**A.** < 1 nM

**Q.** What about the Dmax (STAT6) of the same compound?
**A.** > 90%

**Q.** For `CN(C)C(=O)c1cc2c(-c3ccc(C4CCN(c5ccc(C6CCC(=O)NC6=O)cc5F)CC4)cc3)cc(C3=CCCN(C(=O)CCn4cccn4)C3)c(F)c2[nH]1` (stereo not drawn) [Example I-628, 6-(1-(3-(1H-pyrazol-1-yl)propanoyl)-1,2,5,6-tetrahydropyridin-3-yl)-4-(4-(I-(4-(2,6-dioxopiperidin-3-yl)-2-fluorophenyl)piperidin-4-yl)phenyl)-7-fluoro-N,N-dimethyl-1H-indole-2-carboxamide], which Dmax (STAT6-HiBiT) is on record?
**A.** > 90%

**Q.** What about the IC50 [1] of the same compound?
**A.** < 100 nM

**Q.** What about the DC50 (STAT6) of the same compound?
**A.** < 1 nM

**Q.** What about the Dmax (STAT6) of the same compound?
**A.** > 90%

**Q.** For `COc1cc(N2CCN(c3ccc(-c4cc(C5=CCCN(C(=O)CCn6cccn6)C5)c(F)c5[nH]c(C(=O)N(C)C)cc45)c(F)c3F)CC2)c(F)cc1NC1CCC(=O)NC1=O` (stereo not drawn) [Example I-677, 6-(1-(3-(1H-pyrazol-1-yl)propanoyl)-1,2,5,6-tetrahydropyridin-3-yl)-4-(4-(4-(4-((2,6-dioxopiperidin-3-yl)amino)-2-fluoro-5-methoxyphenyl)piperazin-1-yl)-2,3-difluorophenyl)-7-fluoro-N,N-dimethyl-1H-indole-2-carboxamide], which DC50 (STAT6-HiBiT) is on record?
**A.** < 1 nM

**Q.** What about the Dmax (STAT6-HiBiT) of the same compound?
**A.** > 90%

**Q.** And the IC50 [1]?
**A.** < 100 nM

**Q.** What about the DC50 (STAT6) of the same compound?
**A.** < 1 nM

**Q.** What about the Dmax (STAT6) of the same compound?
**A.** > 90%

**Q.** `COc1cc(N2CCN(CCCCCCCCN(C(=O)[C@H]3CCCN(c4cncc5ccccc45)C3)c3ccc(=O)n(CC(=O)O)c3)CC2)ccc1-c1cc(C2=CCCN(C(=O)CCn3ccnn3)C2)c(F)c2[nH]c(C(=O)N(C)C)cc12` [Example I-1076, (S)-2-(5-(N-(8-(4-(4-(6-(l-(3-(1H-1,2,3-triazol-1-yl)propanoyl)-1,2,5,6-tetrahydropyridin-3-yl)-2-(dimethylcarbamoyl)-7-fluoro-LH-indol-4-yl)-3-methoxyphenyl)piperazin-1-yl)octyl)-1-(isoquinolin-4-yl)piperidine-3-carboxamido)-2-oxopyridin-1 (2H)-yl)acetic acid] was tested. Which IC50 [1] did it give?
**A.** < 100 nM

**Q.** What about the DC50 (STAT6) of the same compound?
**A.** 10 to 100 nM

**Q.** What about the Dmax (STAT6) of the same compound?
**A.** 50 to 70%
